Target: T1, E-selectin (Homo sapiens, UniProt P16581)
T1 sequence (P16581 whole entry): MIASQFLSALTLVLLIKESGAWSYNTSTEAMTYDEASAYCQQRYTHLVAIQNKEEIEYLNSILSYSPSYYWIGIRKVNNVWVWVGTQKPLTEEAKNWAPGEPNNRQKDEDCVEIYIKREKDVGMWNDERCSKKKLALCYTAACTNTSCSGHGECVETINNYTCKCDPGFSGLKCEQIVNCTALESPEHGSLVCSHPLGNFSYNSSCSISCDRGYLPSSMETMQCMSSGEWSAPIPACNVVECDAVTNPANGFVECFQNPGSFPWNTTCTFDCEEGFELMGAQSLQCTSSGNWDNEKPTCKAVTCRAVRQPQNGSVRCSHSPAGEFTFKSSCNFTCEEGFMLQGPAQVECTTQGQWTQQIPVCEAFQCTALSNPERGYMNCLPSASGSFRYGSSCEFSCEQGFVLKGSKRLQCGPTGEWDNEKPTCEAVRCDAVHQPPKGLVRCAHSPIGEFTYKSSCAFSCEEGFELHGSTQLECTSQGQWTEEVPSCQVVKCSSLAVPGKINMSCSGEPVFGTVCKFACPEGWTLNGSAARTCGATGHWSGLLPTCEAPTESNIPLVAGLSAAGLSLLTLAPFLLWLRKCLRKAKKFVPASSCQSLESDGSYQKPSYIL
Experiment: In vitro inhibitory activity against Selectin E-sialyl Lewis X (sLex) binding

IC50 [µM]	Structure (SMILES)
3.1	CCCCCCCCCCCCCCC(CCCCCCCCCCCCCC)C(=O)N[C@@H](CO[C@@H]1O[C@H](C(C)O)[C@@H](O)[C@@H]1O)C(=O)N[C@H](CCC(=O)O)C(=O)NC (some centres undefined)
1.5	CCCCCCCCCCCCCCC(CCCCCCCCCCCCCC)C(=O)NC(CO[C@@H]1O[C@@H](O)[C@@H](O)[C@H](O)[C@@H]1O)C(=O)N[C@@H](CCC(=O)O)C(=O)NC (single isomer, unassigned)
4.3	CCCCCCCCCCCCCCC(CCCCCCCCCCCCCC)C(=O)N[C@H](CO[C@@H]1O[C@H](C(C)O)[C@@H](O)[C@@H]1O)C(=O)N[C@@H](CCC(=O)O)C(=O)NC.N=C(N)NCCC[C@H](N)C=O (some centres undefined)
13	CCCCCCCCCCCCCCC(CCCCCCCCCCCCCC)C(=O)NC(COC1O[C@@H](O)[C@@H](O)[C@H](O)[C@@H]1O)C(=O)N[C@H](CCC(=O)O)C(=O)NC (single isomer, unassigned)

Source: ChEMBL document CHEMBL1131260, “Studies on selectin blockers. 6. Discovery of homologous fucose sugar unit necessary for E-selectin binding” (J Med Chem, 1998)
